According to patent publication US20100016250A1, “TOLL-LIKE RECEPTOR 9 AGONISTS” (KYOWA HAKKO KIRIN CO., LTD., priority 2006, published 2010):

Assays:
[1] = tested on: NF-κB; assay: Promoting effect on NF-κB promoter-dependent transcriptional activity (luciferase reporter); format: cell-based, human; details: BGERKB5 cells (Namalwa KJM-1 with pIF-luc), 5 hours incubation; FIGS. 2 and 3
Procedure: For the purpose of constructing an evaluation system for determination of NF-κB activity, the following stable transformant cell line was used. NF-κB luciferase reporter plasmid pIF-luc (containing a hygromycin resistant gene expression unit) introduced into cells was prepared by the method described in Japanese Published Unexamined Patent Application No. 169479/00. The plasmid was introduced into a human B-cell line, Namalwa (KJM-1) [Cytotechnology, Vol. 1, p. 151 (1988)], followed by culturing with addition of 0.3 mg/mL hygromycin B to select hygromycin-resistant cells. Among the selected hygromycin-resistant cells, a cell line with which enhancement of luciferase activity by TNF-α (10 ng/mL) stimulation was confirmed (hereinafter referred to as BGERKB5 cells) was used in the following test.
The BGERKB5 cells were suspended in RPMI1640·ITPSG medium having the following composition at a concentration of 1×10^6 cells/mL (hereinafter referred to as the BGERKB5 cell suspension). A test compound was dissolved in phosphate buffer (pH 5) and diluted to a desired concentration with RPMI1640·ITPSG medium to prepare an aqueous solution.
To RPMI1640 medium (Nissui Pharmaceutical Co., Ltd.) were added the following substances at the following concentration or ratio based on the medium (the resulting medium is hereinafter referred to as RPMI1640·ITPSG medium).

[2] = tested on: IP-10; details: BGERKB5 cells, 50 nmol/L, 48 hours, culture supernatant
Procedure: Enzyme-linked immunosorbent assay (ELISA) of IP-10 can be carried out in the following manner.
As a control test, a control group without addition of a test compound was also prepared.
Measurement of the amount of IP-10 produced by the BGERKB5 cells was carried out using an immunoassay kit (BioSource International, Inc.). A calibration curve was prepared using the preparation attached to the kit, and the amount of IP-10 in the culture supernatant was measured.

[3] = target: TLR9 (Homo sapiens, UniProt Q9NR96); details: BGERKB5 cells without siRNA (Mock), 50 nmol/L, 5 hours
Sequence of TLR9 (Q9NR96 26-1032): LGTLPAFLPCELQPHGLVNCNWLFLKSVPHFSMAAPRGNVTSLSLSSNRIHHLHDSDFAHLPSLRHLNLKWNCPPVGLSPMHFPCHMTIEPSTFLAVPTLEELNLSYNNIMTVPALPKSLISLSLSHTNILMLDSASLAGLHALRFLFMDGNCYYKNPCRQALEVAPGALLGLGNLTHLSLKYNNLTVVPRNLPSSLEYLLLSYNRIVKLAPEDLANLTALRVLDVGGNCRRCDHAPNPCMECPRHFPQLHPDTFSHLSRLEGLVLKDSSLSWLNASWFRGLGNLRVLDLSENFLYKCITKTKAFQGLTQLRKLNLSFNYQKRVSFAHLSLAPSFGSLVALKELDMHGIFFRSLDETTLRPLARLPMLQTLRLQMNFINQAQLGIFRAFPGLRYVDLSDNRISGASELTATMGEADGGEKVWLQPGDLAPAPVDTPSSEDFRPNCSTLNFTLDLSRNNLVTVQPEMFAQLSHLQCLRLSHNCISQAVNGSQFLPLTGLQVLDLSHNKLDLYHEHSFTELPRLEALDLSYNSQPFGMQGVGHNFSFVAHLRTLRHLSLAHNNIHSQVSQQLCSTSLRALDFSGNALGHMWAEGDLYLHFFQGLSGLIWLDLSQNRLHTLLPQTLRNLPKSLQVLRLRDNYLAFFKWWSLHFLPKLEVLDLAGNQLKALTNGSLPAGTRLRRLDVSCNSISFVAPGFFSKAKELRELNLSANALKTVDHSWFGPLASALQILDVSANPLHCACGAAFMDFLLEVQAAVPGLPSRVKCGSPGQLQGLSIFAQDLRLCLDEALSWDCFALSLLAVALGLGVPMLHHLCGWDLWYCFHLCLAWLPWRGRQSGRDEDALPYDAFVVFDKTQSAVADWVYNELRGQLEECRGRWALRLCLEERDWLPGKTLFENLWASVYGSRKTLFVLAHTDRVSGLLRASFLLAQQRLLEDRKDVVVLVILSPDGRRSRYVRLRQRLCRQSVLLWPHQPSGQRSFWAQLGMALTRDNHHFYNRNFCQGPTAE
Procedure: A knockdown test of TLR9 using siRNA in BGERKB5 cells can be carried out in the following manner.
A BGERKB5 cell suspension (0.5 mL) having a concentration of 4×10^5 cells/mL obtained according to the method described in Test Example 1 was seeded into 6 wells of a 24-well plate (total cell number: 1.2×10^6 cells), followed by incubation in a CO2 incubator at 37° C. for 24 hours.
Then, siRNA against TLR9 (Ambion, Inc., pre-designed siRNA, ID#6055, Cat. 16704, Lot. 047951si) was introduced in an amount of 100 pmol per well using lipofectamine 2000 (Invitrogen Corp.).
Twenty-four hours after the siRNA introduction, the medium was replaced with a fresh one, followed by further incubation for 48 hours. The obtained cells were collected in a sterile tube and suspended in RPMI1640·ITPSG medium at a concentration of 1×10^6 cells/mL (TLR9 kd group). “Mock group” containing no siRNA was prepared in the same manner as in the preparation of “TLR9 kd group”. […]
A 400-μL portion from each of the cell suspensions of the four groups (3 mL) was seeded in quadruplicate 100 μL aliquots into a 96-well plate, followed by incubation for 5 hours. Steady-Glo (Promega Corp.) (100 μL) was added and the luciferase activity (RLU) in each well was measured using Multilabel Counter ARVO (Perkin-Elmer Corp.).

[4] = tested on: CD80 antigen (CD80); details: Mock cells, 50 nmol/L, 5 hours; corrected with GAPDH, ratio to solvent control (=1)
Procedure: (§1) The remaining portion (2.6 mL) of each of the cell suspensions of the four groups used in Test Example 4 was incubated in a 15-mL sterile tube for 5 hours. The cells were collected, and the expression levels of genes of glyceraldehyde-3-phosphoate dehydrogenase (GAPDH), luciferase (NF-κB promoter-derived) (NF-κB-LUC), interleukin 12B (IL12B) and CD80 antigen (CD80) were measured by the quantitative RT-PCR method using SYBR-Green [see Bio Techniques, Vol. 22, p. 130-131, p. 134-138 (1997)].
(§2) That is, the cell suspension of each group remaining in the above test was subjected to the following procedure.
(§3) The cell suspension (1×10^6 cells/mL) of each group (2.6 mL: total cell number 2.6×10^6 cells) was centrifuged using himac CF702 centrifuge (Hitachi Koki Co., Ltd.) at 4° C. at 800 rpm for 10 minutes, and after the supernatant was removed using Pipetman, PBS (2 mL) was added. The obtained cell suspension was further centrifuged using himac CF702 centrifuge (Hitachi Koki Co., Ltd.) at 4° C. at 800 rpm for 10 minutes, and the supernatant was removed using Pipetman to obtain cells.
(§4) Total RNA was extracted from the obtained cells using RNeasy Mini Kit (registered trademark: Qiagen, Inc.) according to the manual attached to the kit. By using the obtained total RNA as a template, cDNA was synthesized in the following manner using Super Script First-strand Synthesis System for RT-PCR (Invitrogen Corp.) according to the manual attached to the kit.
(§5) Ten mmol/L dNTPs mixture solution (1.0 μL) and 0.5 μg/μL oligo(dT)12-18 primer (1.0 μL) were added to the […] (5 μg), and the mixture was diluted with an aqueous solution of diethyl pyrocarbonate (DEPC) to make a total volume of 10.0 μL. The obtained solution was heated at 65° C. for 5 minutes, then rapidly cooled on ice, and allowed to stand for more than one minute for denaturation.

[5] = tested on: luciferase (NF-κB promoter-derived) (NF-κB-LUC); details: Mock cells, 50 nmol/L, 5 hours; corrected with GAPDH, ratio to solvent control (=1)
Procedure: as §1, §2, §3, §4, §5

[6] = tested on: glyceraldehyde-3-phosphate dehydrogenase (GAPDH); details: Mock cells, 50 nmol/L, 5 hours; GAPDH is the internal standard regarded as 1; solvent control = 1
Procedure: as §1, §2, §3, §4, §5

[7] = tested on: interleukin 12B (IL12B); details: Mock cells, 50 nmol/L, 5 hours; corrected with GAPDH, ratio to solvent control (=1)
Procedure: as §1, §2, §3, §4, §5

[8] = tested on: CD40; details: BGERKB5 cells, 50 nmol/L, 12 hours
Procedure: (§6) Flow cytometry analysis of CD40, CD80, CD86, etc., which are co-stimulating molecules important for the activation of lymphocytes, can be carried out in the following manner.
(§7) The BGERKB5 cell suspension having a concentration of 1.1×10^6 cells/mL obtained in Test Example 1 (90 μL) was put into wells of a 96-well plate containing an aqueous solution of a test compound prepared according to the method described in Test Example 1 (10 μL) (final concentration: 50 nmol/L), followed by incubation in a CO2 incubator at 37° C. for 12 hours (test compound group). As a control test, a control group without addition of a test compound was also prepared.
(§8) The following experiments were carried out at a temperature not more than 4° C. The cells were washed twice with 200 μL of phosphate buffer (PBS) containing 1% bovine serum albumin (Fraction V, Sigma) and 0.05% sodium azide, followed by replacement with the same buffer (100 μL). A phycoerythrin-labeled mouse anti-human CD40 monoclonal antibody solution (BD Biosciences), a phycoerythrin-labeled mouse anti-human CD80 monoclonal antibody solution (BD Biosciences) or a phycoerythrin-labeled mouse anti-human CD86 monoclonal antibody solution (BD Biosciences) (2 μL) was added to the cells, and after stirring, the cells were allowed to stand in the dark for 50 minutes.
(§9) The cells were washed twice with 200 μL of phosphate buffer (PBS) containing 1% bovine serum albumin (Fraction V, Sigma) and 0.05% sodium azide, followed by replacement with the same buffer (500 μL).
(§10) The cell count was determined using EPICS XL-MCL (Beckman Coulter, Inc., excitation wavelength 488 nm, argon laser) as a flow cytometer and a positive cell ratio was calculated. As a measurement software, System 2 version 3.0 (Beckman Coulter, Inc.) was used.

[9] = tested on: CD80; details: BGERKB5 cells, 50 nmol/L, 12 hours
Procedure: as §6, §7, §8, §9, §10

[10] = tested on: CD86; details: BGERKB5 cells, 50 nmol/L, 12 hours
Procedure: as §6, §7, §8, §9, §10

CC(=O)OC[C@@H](OC(C)=O)[C@H]1O[C@@H](OP(=O)(O)OP(=O)(O)OC[C@H]2O[C@@H](n3cnc4c(N)ncnc43)[C@H](O)[C@@H]2O)[C@@H](OC(C)=O)[C@@H](OC(C)=O)[C@@H]1OC(C)=O [Compound 14, Adenosine=5′-(2,3,4,6,7-penta-O-acetyl-D-glycero-β-D-mannoheptopyranosyl)diphosphate]
luciferase activity (RLU), activating effect on NF-κB [1]: enhancement of luciferase activity was confirmed

Adenosine=5′-(6-deoxy-β-D-mannoheptopyranosyl)-α, β-methylene diphosphate [Compound 30]
luciferase activity (RLU), activating effect on NF-κB [1]: enhancement of luciferase activity was confirmed | amount of IP-10 produced [2]: 821 pg/mL

CC(=O)OCCC1OC(OP(=O)(O)OP(=O)(O)OCC2OC(n3cnc4c(N)ncnc43)C(O)C2O)C(OC(C)=O)C(OC(C)=O)C1OC(C)=O [Compound 1, Adenosine=5′-(2,3,4,7-tetra-O-acetyl-6-deoxy-β-D-mannoheptopyranosyl)diphosphate]
luciferase activity (RLU), activating effect on NF-κB [1]: enhancement of luciferase activity was confirmed

CC(=O)OCC(OC(C)=O)C1OC(OP(=O)(O)OP(=O)(O)OCC2OC(n3cnc4c(N)ncnc43)C(O)C2O)C(OC(C)=O)C(OC(C)=O)C1OC(C)=O [Compound 10, Adenosine=5′-(2,3,4,6,7-penta-O-acetyl-L-glycero-β-D-mannoheptopyranosyl)diphosphate]
luciferase activity (RLU), activating effect on NF-κB [1]: enhancement of luciferase activity was confirmed

Nc1ncnc2c1ncn2C1OC(COP(=O)(O)OP(=O)(O)OC2OC(CCO)C(O)C(O)C2O)C(O)C1O [Compound 2, Adenosine=5′-(6-deoxy-β-D-mannoheptopyranosyl)diphosphate]
luciferase activity (RLU), activating effect on NF-κB [1]: enhancement of luciferase activity was confirmed

Nc1ncnc2c1ncn2[C@@H]1O[C@H](COP(=O)(O)OP(=O)(O)O[C@@H]2O[C@H]([C@H](O)CO)[C@@H](O)[C@H](O)[C@@H]2O)[C@@H](O)[C@H]1O [Compound 16, Adenosine=5′-(D-glycero-β-D-mannoheptopyranosyl)diphosphate]
luciferase activity (RLU), activating effect on NF-κB [1]: enhancement of luciferase activity was confirmed | Luciferase activity (RLU) (mean ± standard error), Mock [3]: 7196.7 ± 88.8 RLU | relative mRNA expression level, CD80, Mock [4]: 127 | relative mRNA expression level, NF-κB-LUC, Mock [5]: 59.7 | relative mRNA expression level, GAPDH, Mock [6]: 1.0 | relative mRNA expression level, IL12B, Mock [7]: 1.4 | amount of IP-10 produced [2]: 1441 pg/mL | Positive cell ratio (%) CD40 [8]: 93.6% | Positive cell ratio (%) CD80 [9]: 45.7% | Positive cell ratio (%) CD86 [10]: 78.4%

Nc1ncnc2c1ncn2[C@@H]1O[C@H](COP(=O)(O)OP(=O)(O)O[C@@H]2OC([C@@H](O)CO)[C@@H](O)C(O)C2O)C(O)C1O (stereo partly drawn) [Compound 12, Adenosine=5′-(L-glycero-β-D-mannopyranosyl)diphosphate]
luciferase activity (RLU), activating effect on NF-κB [1]: enhancement of luciferase activity was confirmed
